# Measurements taken from publication PMC10082830, “A tailored tetravalent peptide displays dual functions to inhibit amyloid β production and aggregation” (Communications Biology, 2023).
# Ends that are not written are not given here.
# Columns and labels:
# Aβ42 [1] = biological target: T1, Aβ42 (Homo sapiens, UniProt P05067); settings: equivalent molar concentration, after 8 h of incubation, Thioflavin T-binding assay; cited from earlier work
# T1 construct: the plate was incubated with various concentrations of Aβ1–28, Aβ40, or Aβ42 (Peptide Institute); purchased Peptide Institute
# Aβ42 [2] = biological target: T1, Aβ42; test: Circular dichroism spectroscopy of Aβ42 conformational change; settings: Aβ42 20 µM, peptide 2 µM, 50 mM sodium phosphate buffer pH 7.4, 37 °C, far-UV CD, molar ellipticity at 217 nm
# Experimental: Fig. 5 LME-tet inhibits the conformational change and subsequent fibrillation of Aβ42. a Binding of LME-tet to extracellular Aβ. Culture medium from 7WD10 cells recovered after 48 h of growth was treated with biotinylated LME-tet (50 µM) or LME-mono (200 µM). Medium was then incubated with streptavidin beads, and coprecipitating Aβ40 and Aβ42 were analyzed by western blot using anti-Aβ or anti-Aβ42-specific antibody. b Time-dependent conformational change in Aβ42 (20 µM) in the presence of LME-tet (2 µM, lower left panel) or LME-mono (2 µM, upper right panel). Far-UV circular dichroism (CD) spectra (wavelength 190–250 nm) were measured at the indicated time points. […] Data represent the mean ± SE; n = 3–4. c Fibrillation profiles of Aβ42 in the presence of LME-tet (2 µM) or LME-mono (2 µM), measured by Thioflavin T-binding assay. […] Data represent the mean ± SE; n = 3. d Fibrillation profiles of Aβ42 in the presence of LME-tet (2 µM) or LME-mono (2 µM), analyzed by electron microscopy; representative images at ×10 K, ×50 K, and ×200 K magnification (left, right, and center, respectively) are shown. Scale bars indicate 2 µm, 400 nm, and 100 nm, respectively. e Effects of LME-tet (2 µM) on growth of Aβ42 fibril in the presence of 2% (v/v) Aβ42 fibril-seed, measured by the Thioflavin T-binding assay. […]
# 7WD10 cells = test: Lysosomal protease inhibitor treatment of 7WD10 cells, western blot; assay type: cell-based, Chinese Hamster; settings: LME-tet (25 µM) or LME-mono (100 µM), lysosomal PI cocktail (E-64, leupeptin), 48 h
# Aβ1–28 = test: ELISA binding between Aβ and LME peptides; settings: LME-tet (8.3 µM) or LME-mono (33 µM) applied on plate, Aβ 2 h at room temperature, n = 3
# Experimental: (§1) The indicated amounts of LME-tet (8.3 µM) or LME-mono (33 µM) were applied onto each well of a regular 96-well ELISA plate (Thermo Fisher Scientific) and incubated overnight for 24 h. After blocking, the plate was incubated with various concentrations of Aβ1–28, Aβ40, or Aβ42 (Peptide Institute) for 2 h at room temperature. Bound Aβ was detected using mouse monoclonal anti-human Aβ antibody 82E1 (Immuno-Biological Laboratories Co., Ltd.) and HRP-conjugated horse anti-mouse IgG antibody (Cell Signaling Technology).
# Aβ40 = biological target: T2, Aβ40 (Homo sapiens, UniProt P05067); test: ELISA binding between Aβ and LME peptides; settings: LME-mono (33 µM) applied on plate, n = 4
# T2 construct: purchased Peptide Institute
# Experimental: as §1
# Aβ42 [3] = biological target: T1, Aβ42; test: ELISA binding between Aβ and LME peptides; settings: LME-mono (33 µM) applied on plate, n = 3
# Experimental: as §1
# [4] = system: 7WD10 Chinse Hamster Ovary (CHO) cells stably expressing human APP; test: Aβ production in 7WD10 cells, western blot of culture medium and cell lysates; assay type: cell-based, Chinese Hamster; settings: 48 h, tetravalent peptides 50 µM, LME-mono 100 and 200 µM, n = 3
# Experimental: 7WD10 Chinse Hamster Ovary (CHO) cells were treated with each tetravalent peptide (50 µM) for 48 h; cell lysates (for intracellular C99 and Aβ) and culture medium (for extracellular Aβ) from peptide-treated and vehicle control-treated cells were analyzed by western blot. Data are graphed as the percentage of the control value, showing the mean ± SE; n = 3. Significance vs. vehicle was calculated by analysis of variance (ANOVA), followed by one-sided Dunnett’s test; *P < 0.05, **P < 0.01. c Effect of increasing concentrations of LME-tet on Aβ production (left panel). 7WD10 cells were treated with vehicle control or LME-tet at the indicated concentrations for 48 h, and the culture medium was analyzed by western blot. Data are graphed as the percentage of the control value, showing the mean ± SE; n = 3. Significance vs. vehicle was calculated by ANOVA, followed by one-sided Dunnett’s test; *P < 0.05, **P < 0.01. Effect of LME-mono on Aβ production (right panels). 7WD10 cells were treated with vehicle control or LME-mono at the indicated concentrations for 48 h; cell lysates (for intracellular C99 and Aβ) and culture medium (for extracellular Aβ) were analyzed by western blot. […] Significance vs. vehicle was calculated by ANOVA, followed by one-sided Dunnett’s test; *P < 0.05. d Binding of LME-tet and LME-mono to Aβ1-28, Aβ40 and Aβ42 was measured by enzyme-linked immunosorbent assay (ELISA). […]
# T1 sequence (P05067 672-713 limits assumed): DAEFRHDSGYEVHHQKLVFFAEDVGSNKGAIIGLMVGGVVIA
# T2 sequence (P05067 672-711 limits assumed): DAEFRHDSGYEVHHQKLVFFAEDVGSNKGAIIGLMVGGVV
Substance,inhibition of fibrillation of Aβ42 (Aβ42 [1]),conformational change of Aβ42 (β-sheet formation) (Aβ42 [2]),"PI-dependent increase of intracellular APP, C99, Aβ, p62 and LC3-II (7WD10 cells)",binding to Aβ1–28 (Aβ1–28),binding to Aβ40 (Aβ40),binding to Aβ42 (Aβ42 [3]),inhibitory effect on production of Aβ [4]
Ac-KL-NVF-NFA-NH2,40%,–,–,–,–,–,–
"PKLRMKE [LME-mono, monomeric peptide with the same motif, Pro-Lys-Leu-Arg-Met-Lys-Glu]",–,no effect was observed,does not affect,unable to bind,unable to bind,unable to bind,has no effect
